Data as given in article PMC5099578, “A structural and functional study on the 2-C-methyl-D-erythritol-4-phosphate cytidyltransferase (IspD) from Bacillus subtilis” (Scientific Reports, 2016).

Target: T1, BsIspD (Bacillus subtilis, UniProt Q06755)
T1 construct: gene ispD; full length (699 bp gene, 232 residues built); pGEX-6P-1, expressed in E. coli, GST tag cut with PreScission protease; homodimer
Experiment: X-ray crystal structure of the complex, […] Å
Format: binding
Details: co-crystallised with 10 mM CTP and 10 mM MgCl2; active site, one CTP and one Mg2+ in molecule D only

T1 sequence (Q06755 whole entry): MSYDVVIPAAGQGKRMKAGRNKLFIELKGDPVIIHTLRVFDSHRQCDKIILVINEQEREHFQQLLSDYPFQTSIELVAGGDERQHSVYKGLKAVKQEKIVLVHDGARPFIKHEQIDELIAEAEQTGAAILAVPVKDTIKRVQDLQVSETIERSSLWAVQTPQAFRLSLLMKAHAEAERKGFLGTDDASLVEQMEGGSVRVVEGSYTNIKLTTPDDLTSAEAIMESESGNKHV

## Nc1ccn([C@@H]2O[C@H](COP(=O)(O)OP(=O)(O)OP(=O)(O)O)[C@@H](O)[C@H]2O)c(=O)n1 [CTP]
  X-ray crystal structure of the complex, 1.90 Å: One CTP molecule and one magnesium ion were observed binding to the molecule D
